≈ marks a conversion by molar mass, not a printed value.
Assay: physchem

solubility at 24 h (pH 1.2): 90 µg/mL (≈ 394 µM)
solubility at 24 h (pH 3): 8 µg/mL (≈ 35 µM)
solubility at 24 h (pH 5.2): < 2 µg/mL
solubility at 24 h (pH 7): < 2 µg/mL
SMILES: CCCCCCCCCCCCCC(=O)O [Samarium miristate, samarium miristate]

— EP0587106B1, “Compositions containing lipophilic salts having neutron activable cations” (VECTORPHARMA INTERNATIONAL S.p.A., priority 1992, dated 1994)
